This passage reports GI50 results from patent US11254676B2, “Pyrazole derivative compound and use thereof” (HANMI PHARM. CO., LTD., priority 2017, dated 2022).

By GI50 is commonly meant the concentration giving 50% growth inhibition. Low readings indicate greater sensitivity of the cells, high ones lower sensitivity of the cells.

This test concerns NCI-H1417 cells. Nature of the test: Cell growth suppression test, CellTiter-Glo Luminescent Cell Viability Assay. The class given is cell-based. The following applies: Homo sapiens, 240 h; NCI-H1417 cells treated for 10 days. As to the method: Cell growth suppression effects of the synthesized compounds on NCI-H1417 cells were identified. The cells were treated with the synthesized compounds for 10 days. Then, in order to test the cell growth suppression, CellTiter-Glo Luminescent Cell Viability Assay (available from Promega, USA) was used. This test is to measure emission signals proportional to the number of ATPs based on a fixed amount of ATPs, which represents the presence of metabolically active cells, thereby determining the number of viable cells. The results are expressed as a GI50 value. As for a control, GSK2879552 (available from GlaxoSmithKline USA) was used.
The compound `N#Cc1ccc(-c2cc(C(=O)N3CCC[C@@H](N)C3)nn2-c2ccc(C3CC3)cc2)cc1` [Example 1, (R)-4-(3-(3-aminopiperidine-1-carbonyl)-1-(4-cyclopropylphenyl)-1H-pyrazole-5-yl)benzonitrile] came in with a GI50 of 0.094 µM.
Compound `CN[C@@H]1CCCN(C(=O)c2cc(-c3ccc(C#N)cc3)n(-c3ccc(C4CC4)cc3)n2)C1` [Example 2, (R)-4-(1-(4-cyclopropylphenyl)-3-(3-methylaminopiperidine-1-carbonyl)-1H-pyrazole-5-yl)benzonitrile] gave a GI50 of 0.12 µM.
`N#Cc1ccc(-c2cc(C(=O)N3CCC[C@@H](N)C3)nn2-c2ccc(C3CC3)cc2F)cc1` [Example 3, (R)-4-(3-(3-aminopiperidine-1-carbonyl)-1-(4-cyclopropyl-2-fluorophenyl)-1H-pyrazole-5-yl)benzonitrile]: the GI50 amounted to 0.049 µM.
As to `CN[C@@H]1CCCN(C(=O)c2cc(-c3ccc(C#N)cc3)n(-c3ccc(C4CC4)cc3F)n2)C1` [Example 4, (R)-4-(1-(4-cyclopropyl-2-fluorophenyl)-3-(3-(methylamino)piperidine-1-carbonyl)-1H-pyrazole-5-yl)benzonitrile], it took 0.024 µM to inhibit growth by half (GI50).
In the case of `N#Cc1ccc(-c2cc(C(=O)N3CCC[C@@H](N)C3)nn2-c2ccc(C3CC3)cc2F)cc1F` [Example 5, (R)-4-(3-(3-aminopiperidine-1-carbonyl)-1-(4-cyclopropyl-2-fluorophenyl)-1H-pyrazole-5-yl)-2-fluorobenzonitrile], the 50% growth inhibitory concentration (GI50) was found to be 0.048 µM.
On to `N#Cc1ccc(-c2cc(C(=O)N3CCCC[C@@H](N)C3)nn2-c2ccc(C3CC3)cc2F)cc1F` [Example 8, (R)-4-(3-(3-aminoazepane-1-carbonyl)-1-(4-cyclopropyl-2-fluorophenyl)-1H-pyrazole-5-yl)-2-fluorobenzonitrile], for which the concentration for 50% growth inhibition (GI50) stood at 0.101 µM.
As to `N#Cc1ccc(-c2cc(C(=O)N3CCC[C@@H](N)C3)nn2-c2c(F)cc(C3CC3)cc2F)cc1F` [Example 10, (R)-4-(3-(3-aminopiperidine-1-carbonyl)-1-(4-cyclopropyl-2,6-difluorophenyl)-1H-pyrazole-5-yl)-2-fluorobenzonitrile], the GI50 came to 0.108 µM.
In the case of `CC(C)c1ccc(-n2nc(C(=O)N3CCC[C@@H](N)C3)cc2-c2ccc(C#N)cc2)cc1` [Example 35, (R)-4-(3-(3-aminopiperidine-1-carbonyl)-1-(4-isopropylphenyl)-1H-pyrazole-5-yl)benzonitrile] it was 0.145 µM.
The compound `CN[C@@H]1CCCN(C(=O)c2cc(-c3ccc(C#N)cc3)n(-c3ccc(C(C)C)cc3)n2)C1` [Example 36, (R)-4-(1-(4-isopropylphenyl)-3-(3-(methylamino)piperidine-1-carbonyl)-1H-pyrazole-5-yl) benzonitrile] gave a GI50 of 0.091 µM. This GI50 is about 1.6-fold lower than that of the compound before.
`CC(C)c1ccc(-n2nc(C(=O)N3CCC[C@@H](N)C3)cc2-c2ccc(C#N)cc2)c(F)c1` [Example 37, (R)-4-(3-(3-aminopiperidine-1-carbonyl)-1-(2-fluoro-4-isopropylphenyl)-1H-pyrazole-5-yl) benzonitrile] showed a concentration for 50% growth inhibition (GI50) of 0.215 µM.
`CC(C)c1ccc(-n2nc(C(=O)N3CCC[C@@H](N)C3)cc2-c2ccc(C#N)c(F)c2)c(F)c1` [Example 38, (R)-4-(3-(3-aminopiperidine-1-carbonyl)-1-(2-fluoro-4-isopropylphenyl)-1H-pyrazole-5-yl)-2-fluorobenzonitrile] came in with a GI50 of 0.079 µM.
`CC(C)c1ccc(-n2nc(C(=O)N3CCCC[C@@H](N)C3)cc2-c2ccc(C#N)c(F)c2)c(F)c1` [Example 39, (R)-4-(3-(3-aminoazepane-1-carbonyl)-1-(2-fluoro-4-isopropylphenyl)-1H-pyrazole-5-yl)-2-fluorobenzonitrile] returned a GI50 of 0.139 µM.
Turning to `CC(C)(C)c1ccc(-n2nc(C(=O)N3CCC[C@@H](N)C3)cc2-c2ccc(C#N)cc2)cc1` [Example 40, (R)-4-(3-(3-aminopiperidine-1-carbonyl)-1-(4-(tert-butyl)phenyl)-1H-pyrazole-5-yl)benzonitrile], the GI50 is 0.226 µM. This GI50 is about 1.6-fold higher than that of the compound before.
For `CN[C@@H]1CCCN(C(=O)c2cc(-c3ccc(C#N)cc3)n(-c3ccc(C(C)(C)C)cc3)n2)C1` [Example 41], the 50% growth inhibitory concentration (GI50) came to 0.126 µM. This GI50 is about 1.8-fold lower than that of the compound before.
Regarding `CC(C)(C)c1ccc(-n2nc(C(=O)N3CCC[C@@H](N)C3)cc2-c2ccc(C#N)cc2)c(F)c1` [Example 42, (R)-4-(3-(3-aminopiperidine-1-carbonyl)-1-(4-(tert-butyl)-2-fluorophenyl)-1H-pyrazole-5-yl)benzonitrile], the GI50 came to 0.226 µM.
The value for `CC(C)(C)c1ccc(-n2nc(C(=O)N3CCC[C@@H](N)C3)cc2-c2ccc(C#N)c(F)c2)c(F)c1` [Example 43] was 0.069 µM; that for `CC(C)(C)c1ccc(-n2nc(C(=O)N3CCCC[C@@H](N)C3)cc2-c2ccc(C#N)c(F)c2)c(F)c1` [Example 44] was 0.133 µM; that for `CN(C)c1ccc(-n2nc(C(=O)N3CCC[C@@H](N)C3)cc2-c2ccc(C#N)cc2)cc1` [Example 53] was 0.102 µM.
The compound `CN(C)c1ccc(-n2nc(C(=O)N3CCC[C@@H](N)C3)cc2-c2ccc(C#N)cc2)c(F)c1` [Example 54, (R)-4-(3-(3-aminopiperidine-1-carbonyl)-1-(4-(dimethylamino)-2-fluorophenyl)-1H-pyrazole-5-yl)benzonitrile] gave a GI50 of 0.084 µM.
For the compound `N#Cc1ccc(-c2cc(C(=O)N3CCC[C@@H](N)C3)nn2-c2ccc(N3CCCC3)cc2F)cc1` [Example 57, (R)-4-(3-(3-aminopiperidine-1-carbonyl)-1-(2-fluoro-4-(pyrrolidine-1-yl)phenyl)-1H-pyrazole-5-yl)benzonitrile], the GI50 turned out to be 0.045 µM.
In turn, `N#Cc1ccc(-c2cc(C(=O)N3CCC[C@@H](N)C3)nn2-c2ccc(N3CCCC3)cc2F)cc1F` [Example 58, (R)-4-(3-(3-aminopiperidine-1-carbonyl)-1-(2-fluoro-4-(pyrrolidine-1-yl)phenyl)-1H-pyrazole-5-yl)-2-fluorobenzonitrile] displayed a GI50 of 0.024 µM.
For the compound `CN[C@@H]1CCCN(C(=O)c2cc(-c3ccc(C#N)c(F)c3)n(-c3ccc(N4CCCC4)cc3F)n2)C1` [Example 59, (R)-2-fluoro-4-(1-(2-fluoro-4-(pyrrolidine-1-yl)phenyl)-3-(3-(methylamino)piperidine-1-carbonyl)-1H-pyrazole-5-yl)benzonitrile], halving of growth (GI50) required 0.0097 µM.
The compound `N#Cc1ccc(-c2cc(C(=O)N3CCCC[C@@H](N)C3)nn2-c2ccc(N3CCCC3)cc2F)cc1F` [Example 60, (R)-4-(3-(3-aminoazepane-1-carbonyl)-1-(2-fluoro-4-(pyrrolidine-1-yl)phenyl)-1H-pyrazole-5-yl)-2-fluorobenzonitrile] yielded a GI50 of 0.053 µM.
Compound `N#Cc1ccc(-c2cc(C(=O)N3CCC[C@@H](N)C3)nn2-c2ccc(N3CC[C@@H](F)C3)cc2F)cc1F` [Example 61, 4-(3-((R)-3-aminopiperidine-1-carbonyl)-1-(2-fluoro-4-((R)-3-fluoropyrrolidine-1-yl)phenyl)-1H-pyrazole-5-yl)-2-fluorobenzonitrile] gave a GI50 of 0.082 µM.
Compound `N#Cc1ccc(-c2cc(C(=O)N3CCC[C@@H](N)C3)nn2-c2ccc(N3CCC(F)(F)C3)cc2F)cc1F` [Example 63, (R)-4-(3-(3-aminopiperidine-1-carbonyl)-1-(4-(3,3-difluoropyrrolidine-1-yl)-2-fluorophenyl)-1H-pyrazole-5-yl)-2-fluorobenzonitrile] came in with a GI50 of 0.033 µM. This GI50 lies about 2.5-fold lower than the previous one.
On to `CN[C@@H]1CCCN(C(=O)c2cc(-c3ccc(C#N)c(F)c3)n(-c3ccc(N4CCC(F)(F)C4)cc3F)n2)C1` [Example 64, (R)-4-(1-(4-(3,3-difluoropyrrolidine-1-yl)-2-fluorophenyl)-3-(3-(methylamino)piperidine-1-carbonyl)-1H-pyrazole-5-yl)-2-fluorobenzonitrile], for which the GI50 was found to be 0.019 µM.
The value for `COC1CCN(c2ccc(-n3nc(C(=O)N4CCC[C@@H](N)C4)cc3-c3ccc(C#N)c(F)c3)c(F)c2)C1` (stereo partly drawn) [Example 65, 4-(3-((R)-3-aminopiperidine-1-carbonyl)-1-(2-fluoro-4-(3-methoxypyrrolidin-1-yl)phenyl)-1H-pyrazol-5-yl)-2-fluorobenzonitrile] was 0.058 µM.
Turning to `CN[C@@H]1CCCN(C(=O)c2cc(-c3ccc(C#N)c(F)c3)n(-c3ccc(N4CCC(OC)C4)cc3F)n2)C1` (stereo partly drawn) [Example 66, 2-fluoro-4-(1-(2-fluoro-4-(3-methoxypyrrolidine-1-yl)phenyl)-3-((R)-3-(methylamino)piperidine-1-carbonyl)-1H-pyrazole-5-yl)benzonitrile], the concentration for 50% growth inhibition (GI50) came out at 0.016 µM.
Compound `CO[C@H]1CCN(c2ccc(-n3nc(C(=O)N4CCC[C@@H](N)C4)cc3-c3ccc(C#N)c(F)c3)c(F)c2)C1` [Example 67, 4-(3-((R)-3-aminopiperidine-1-carbonyl)-1-(2-fluoro-4-((S)-3-methoxypyrrolidine-1-yl)phenyl)-1H-pyrazole-5-yl)-2-fluorobenzonitrile] had a GI50 of 0.03 µM. Against the preceding compound, the GI50 is about 1.9-fold higher.
For the compound `CN[C@@H]1CCCN(C(=O)c2cc(-c3ccc(C#N)c(F)c3)n(-c3ccc(N4CC[C@H](OC)C4)cc3F)n2)C1` [Example 68, 2-fluoro-4-(1-(2-fluoro-4-((S)-3-methoxypyrrolidine-1-yl)phenyl)-3-((R)-3-(methylamino)piperidine-1-carbonyl)-1H-pyrazole-5-yl)benzonitrile], it took 0.0068 µM to inhibit growth by half (GI50).
The compound `CO[C@@H]1CCN(c2ccc(-n3nc(C(=O)N4CCC[C@@H](N)C4)cc3-c3ccc(C#N)c(F)c3)c(F)c2)C1` [Example 69, 4-(3-((R)-3-aminopiperidine-1-carbonyl)-1-(2-fluoro-4-((R)-3-methoxypyrrolidine-1-yl)phenyl)-1H-pyrazole-5-yl)-2-fluorobenzonitrile] had a GI50 of 0.038 µM.
